Assay: xn = mol fraction of the nth substance listed
Conditions: 100 kPa, Liquid; for viscosity: Capillary tube (Ostwald / Ubbelohde) method; for speed of sound: Frequency=2 MHz, Linear variable-path acoustic interferometer; for mass density: Vibrating tube method

OCCCl [1-chloro-2-hydroxyethane] + Nc1cccc(Cl)c1
Conditions	mass density [kg/m3]	speed of sound [m/s]	viscosity [mPa·s]
303.15 K, x2 = 0	1192.12	1342.8	2.578
303.15 K, x2 = 0.0844	1194.38	1365.5	2.728
303.15 K, x2 = 0.1759	1196.5	1388.6	2.888
303.15 K, x2 = 0.2675	1198.32	1410	3.046
303.15 K, x2 = 0.3622	1199.9	1430.2	3.207
303.15 K, x2 = 0.4808	1201.48	1452.7	3.408
303.15 K, x2 = 0.5814	1202.58	1469.7	3.576
303.15 K, x2 = 0.6862	1203.51	1484.7	3.749
303.15 K, x2 = 0.7938	1204.28	1498	3.925
303.15 K, x2 = 0.8902	1204.84	1508.2	4.081
308.15 K, x2 = 0	1186.63	1328.5	2.259
308.15 K, x2 = 0.0844	1189.08	1351.3	2.402
308.15 K, x2 = 0.1759	1191.33	1374.1	2.553
308.15 K, x2 = 0.2675	1193.26	1395.1	2.703
308.15 K, x2 = 0.3622	1194.92	1415	2.855
308.15 K, x2 = 0.4808	1196.62	1437.1	3.045
308.15 K, x2 = 0.5814	1197.79	1454	3.203
308.15 K, x2 = 0.6862	1198.8	1469.2	3.367
308.15 K, x2 = 0.7938	1199.65	1482.5	3.532
308.15 K, x2 = 0.8902	1200.24	1492.7	3.679
313.15 K, x2 = 0	1178.05	1315.5	1.852
313.15 K, x2 = 0.0844	1181.05	1337.6	1.995
313.15 K, x2 = 0.1759	1183.78	1359.6	2.147
313.15 K, x2 = 0.2675	1186.13	1379.6	2.296
313.15 K, x2 = 0.3622	1188.2	1398.4	2.448
313.15 K, x2 = 0.4808	1190.36	1419.6	2.636
313.15 K, x2 = 0.5814	1191.88	1435.7	2.795
313.15 K, x2 = 0.6862	1193.24	1450.5	2.958
313.15 K, x2 = 0.7938	1194.4	1463.3	3.123
313.15 K, x2 = 0.8902	1195.27	1472.8	3.269
318.15 K, x2 = 0	1170.87	1301.2	1.564
318.15 K, x2 = 0.0844	1173.91	1323.6	1.698
318.15 K, x2 = 0.1759	1176.26	1345.1	1.84
318.15 K, x2 = 0.2675	1178.79	1365.6	1.978
318.15 K, x2 = 0.3622	1181.24	1384.1	2.118
318.15 K, x2 = 0.4808	1184.01	1404.8	2.292
318.15 K, x2 = 0.5814	1185.85	1420.8	2.438
318.15 K, x2 = 0.6862	1187.52	1435.5	2.589
318.15 K, x2 = 0.7938	1189.32	1448.6	2.741
318.15 K, x2 = 0.8902	1190.2	1458	2.874

Nc1cccc(Cl)c1 [3-chlorobenzenamine] + NCCO
Conditions	mass density [kg/m3]	speed of sound [m/s]	viscosity [mPa·s]
303.15 K, x1 = 0.0857	1037.07	1689	13.56
303.15 K, x1 = 0.1749	1063.03	1674.4	12.66
303.15 K, x1 = 0.2679	1086.86	1658.9	11.72
303.15 K, x1 = 0.3619	1108.19	1642.4	10.77
303.15 K, x1 = 0.4597	1127.88	1624.3	9.773
303.15 K, x1 = 0.5607	1145.96	1604.9	8.747
303.15 K, x1 = 0.6649	1162.61	1584.1	7.685
303.15 K, x1 = 0.7726	1177.97	1562.3	6.586
303.15 K, x1 = 0.8835	1192.12	1540.1	5.451
303.15 K, x1 = 1	1205.32	1517.5	4.255
308.15 K, x1 = 0.0857	1032.99	1673.4	11.04
308.15 K, x1 = 0.1749	1058.89	1659.2	10.35
308.15 K, x1 = 0.2679	1082.69	1643.1	9.621
308.15 K, x1 = 0.3619	1103.96	1626	8.885
308.15 K, x1 = 0.4597	1123.59	1607.5	8.117
308.15 K, x1 = 0.5607	1141.65	1588.1	7.322
308.15 K, x1 = 0.6649	1158.22	1568.1	6.5
308.15 K, x1 = 0.7726	1173.53	1547.2	5.649
308.15 K, x1 = 0.8835	1187.62	1525.2	4.77
308.15 K, x1 = 1	1200.75	1501.2	3.842
313.15 K, x1 = 0.0857	1029.02	1658.8	9.049
313.15 K, x1 = 0.1749	1054.84	1643.8	8.509
313.15 K, x1 = 0.2679	1078.52	1626.5	7.944
313.15 K, x1 = 0.3619	1099.7	1608.2	7.37
313.15 K, x1 = 0.4597	1119.25	1588.8	6.771
313.15 K, x1 = 0.5607	1137.2	1568.9	6.151
313.15 K, x1 = 0.6649	1153.72	1548.6	5.51
313.15 K, x1 = 0.7726	1168.97	1527.7	4.846
313.15 K, x1 = 0.8835	1182.98	1505.5	4.157
313.15 K, x1 = 1	1196.02	1480.3	3.43
318.15 K, x1 = 0.0857	1024.4	1642	7.182
318.15 K, x1 = 0.1749	1050.2	1627.5	6.785
318.15 K, x1 = 0.2679	1073.86	1610.2	6.368
318.15 K, x1 = 0.3619	1095.02	1591.7	5.944
318.15 K, x1 = 0.4597	1114.53	1572.2	5.501
318.15 K, x1 = 0.5607	1132.47	1552.5	5.043
318.15 K, x1 = 0.6649	1149	1532.6	4.568
318.15 K, x1 = 0.7726	1164.23	1512.3	4.075
318.15 K, x1 = 0.8835	1178.23	1490.5	3.565
318.15 K, x1 = 1	1191.25	1464.8	3.022

Nc1cccc(Cl)c1 [3-chlorobenzenamine] + OCCc1ccccc1
Conditions	mass density [kg/m3]	speed of sound [m/s]	viscosity [mPa·s]
303.15 K, x1 = 0.0855	1027.23	1509.6	8.643
303.15 K, x1 = 0.1746	1043.06	1511	8.223
303.15 K, x1 = 0.2665	1059.74	1512.3	7.787
303.15 K, x1 = 0.3613	1077.27	1513.6	7.335
303.15 K, x1 = 0.4491	1093.81	1514.6	6.916
303.15 K, x1 = 0.5201	1107.41	1515.4	6.576
303.15 K, x1 = 0.6594	1134.71	1516.5	5.907
303.15 K, x1 = 0.7692	1156.83	1517	5.377
303.15 K, x1 = 0.8787	1179.49	1517.3	4.846
303.15 K, x1 = 1	1205.32	1517.5	4.255
308.15 K, x1 = 0.0855	1023.5	1492.2	6.915
308.15 K, x1 = 0.1746	1039.28	1493.6	6.623
308.15 K, x1 = 0.2665	1055.88	1495	6.319
308.15 K, x1 = 0.3613	1073.34	1496.3	6.005
308.15 K, x1 = 0.4491	1089.81	1497.4	5.712
308.15 K, x1 = 0.5201	1103.34	1498.3	5.473
308.15 K, x1 = 0.6594	1130.52	1499.6	5.005
308.15 K, x1 = 0.7692	1152.56	1500.4	4.632
308.15 K, x1 = 0.8787	1175.08	1500.9	4.259
308.15 K, x1 = 1	1200.75	1501.2	3.842
313.15 K, x1 = 0.0855	1019.67	1472	5.867
313.15 K, x1 = 0.1746	1035.39	1473.4	5.638
313.15 K, x1 = 0.2665	1051.92	1474.6	5.398
313.15 K, x1 = 0.3613	1069.28	1475.8	5.149
313.15 K, x1 = 0.4491	1085.67	1476.9	4.918
313.15 K, x1 = 0.5201	1099.15	1477.7	4.729
313.15 K, x1 = 0.6594	1126.19	1478.9	4.357
313.15 K, x1 = 0.7692	1148.11	1479.7	4.061
313.15 K, x1 = 0.8787	1170.53	1480.3	3.763
313.15 K, x1 = 1	1196.02	1480.3	3.43
318.15 K, x1 = 0.0855	1015.75	1457.9	4.827
318.15 K, x1 = 0.1746	1031.43	1459.1	4.659
318.15 K, x1 = 0.2665	1047.87	1460.2	4.483
318.15 K, x1 = 0.3613	1065.15	1461.2	4.3
318.15 K, x1 = 0.4491	1081.46	1462.1	4.129
318.15 K, x1 = 0.5201	1094.86	1462.8	3.989
318.15 K, x1 = 0.6594	1121.8	1463.9	3.714
318.15 K, x1 = 0.7692	1143.63	1464.6	3.494
318.15 K, x1 = 0.8787	1165.92	1464.8	3.272
318.15 K, x1 = 1	1191.25	1464.8	3.022
